Reference: ChEMBL document CHEMBL1159356, “Cytotoxic styrylpyrones from Goniothalamus amuyon” (J Nat Prod, 2003)
In brackets after ≈: the same amount, converted by molar mass. Numbered stars: 1 amine (or outer) side, 2 acyl side, 3 side chain; on linkers, the order of the positions; unused ones are H or OH. Bridge positions count the residues as written; N and C are the ends. Square brackets hold non-standard residues; d marks the D form. Peptide text beside a SMILES is read from it. I, II: the chains in the order shown. Actinocin(1to9) = Cc1c2oc3c(C)ccc(C(=O)[*:2])c3nc-2c(C(=O)[*:1])c(N)c1=O; NMeV = CN[C@H](C(=O)O)C(C)C; Sar = CNCC(=O)O

Experiments:
[1] = Cytotoxicity against human HONE1 cells; format: functional, cell-based
NUGC = assay: Cytotoxicity against human NUGC cells; format: functional, cell-based

| SMILES | IC50 [1] | IC50 (NUGC) |
| --- | --- | --- |
| CC(=O)O[C@H]([C@H](O)c1ccccc1)[C@H]1CC=CC(=O)O1 | 5.69 µg/mL (≈ 20.6 µM) | 4.12 µg/mL (≈ 14.9 µM) |
| CC(=O)O[C@H](c1ccccc1)[C@H](O)[C@H]1CC=CC(=O)O1 | 6.09 µg/mL (≈ 22 µM) | 5.02 µg/mL (≈ 18.2 µM) |
| O=C1C=CC[C@H]([C@@H](O)[C@H](Cl)c2ccccc2)O1 [6R,7R,8R-8-CHLOROGONIODIOL] | 4.87 µg/mL (≈ 19.3 µM) | 31 µg/mL (≈ 123 µM) |
| CO[C@H](c1ccccc1)[C@H](O)[C@H]1CC=CC(=O)O1 [6R,7R,8R-8-METHOXYGONIODIOL] | 240 µg/mL (≈ 965 µM) | 168 µg/mL (≈ 675 µM) |
| Cc1c2oc3c(C)ccc(C(=O)N[C@@H]4C(=O)N[C@H](C(C)C)C(=O)N5CCC[C@H]5C(=O)N(C)CC(=O)N(C)[C@@H](C(C)C)C(=O)O[C@@H]4C)c3nc-2c(C(=O)N[C@@H]2C(=O)N[C@H](C(C)C)C(=O)N3CCC[C@H]3C(=O)N(C)CC(=O)N(C)[C@@H](C(C)C)C(=O)O[C@@H]2C)c(N)c1=O [DACTINOMYCIN] (I: T[dV]P[Sar][NMeV] / II: T[dV]P[Sar][NMeV]; ester I:1-I:C, II:1-II:C; linker I:N-II:N via Actinocin(1to9)) | 4.53 µg/mL (≈ 3.61 µM) | 6.61 µg/mL (≈ 5.27 µM) |
| O=C1C=CC[C@H]([C@@H]2O[C@H]2c2ccccc2)O1 [GONIOTHALAMIN EPOXIDE] | 36.3 µg/mL (≈ 168 µM) | 32.1 µg/mL (≈ 148 µM) |
